Assay results: patent publication US6737383B1, “Herbicidal oxadiazolidines” (priority 1999, dated 2004)

Tests used:
sugar beet = test: Test B pre/postemergence sugar beet; type: in vivo, Beta vulgaris
Summary of the method: (§1)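 Test chemicals in a non-phytotoxic solvent mixture with surfactant were sprayed preemergence onto planted seeds and postemergence onto plants 2 to 18 cm tall (1- to 4-leaf stage). After twelve to sixteen days in a greenhouse, injury was visually rated against untreated controls from 0 (no effect) to 10 (complete control).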

corn = test: Test B pre/postemergence corn; type: in vivo, Zea mays
Summary of the method: as §1

blackgrass = test: Test B pre/postemergence blackgrass; type: in vivo, Alopecurus myosuroides
Summary of the method: as §1

morningglory = test: Test B pre/postemergence morningglory; type: in vivo, Ipomoea hederacea
Summary of the method: as §1

wheat = test: Test B pre/postemergence wheat; type: in vivo, Triticum aestivum
Summary of the method: as §1

bedstraw = test: Test B pre/postemergence bedstraw; type: in vivo, Galium aparine
Summary of the method: as §1

soybean = test: Test B pre/postemergence soybean; type: in vivo, Glycine max
Summary of the method: as §1

crabgrass = test: Test B pre/postemergence crabgrass; type: in vivo, Digitaria sanguinalis
Summary of the method: as §1

purple nutsedge = test: Test B pre/postemergence purple nutsedge; type: in vivo, Cyperus rotundus
Summary of the method: as §1

giant foxtail = test: Test B pre/postemergence giant foxtail; type: in vivo, Setaria faberii
Summary of the method: as §1

cocklebur = test: Test B pre/postemergence cocklebur; type: in vivo, Xanthium strumarium
Summary of the method: as §1

rape = test: Test B pre/postemergence rape; type: in vivo, Brassica napus
Summary of the method: as §1

wild oat = test: Test B pre/postemergence wild oat; type: in vivo, Avena fatua
Summary of the method: as §1

velvetleaf = test: Test B pre/postemergence velvetleaf; type: in vivo, Abutilon theophrasti
Summary of the method: as §1

pigweed = test: Test B pre/postemergence pigweed; type: in vivo, Amaranthus retroflexus
Summary of the method: as §1

surinam grass = test: Test B pre/postemergence surinam grass; type: in vivo, Brachiaria decumbens
Summary of the method: as §1

[1] = Postemergence, Rate 62 g/ha, scale of 0 to 10, 0 is no effect, 10 is complete control
[2] = Postemergence, Rate 125 g/ha, scale 0 to 10, 0 is no effect, 10 is complete control
[3] = Postemergence, Rate 500 g/ha, scale 0 to 10, 0 is no effect, 10 is complete control
[4] = Preemergence, Rate 62 g/ha, scale 0 to 10 (0 no effect, 10 complete control)
[5] = Preemergence, Rate 125 g/ha, scale 0 to 10, 0 is no effect, 10 is complete control
[6] = Preemergence, Rate 500 g/ha, scale of 0 to 10 where 0 is no effect and 10 is complete control
[7] = Rate 250 g/ha, Postemergence, scale of 0 to 10 where 0 is no effect and 10 is complete control

CC(C)=CCn1c(=O)on(C(=O)N(c2ccc(Cl)cc2)C(C)C)c1=O [Compound 545]
Sugarbeets plant response rating (sugar beet; [1]): 0 | Sugarbeets plant response rating (sugar beet; [2]): 0 | Plant response rating, Sugarbeets (sugar beet; [3]): 3 | Sugarbeets plant response rating (sugar beet; [4]): 0 | Sugarbeets plant response rating (sugar beet; [5]): 0 | Sugarbeets plant response rating (0 to 10 scale) (sugar beet; Preemergence, Rate 250 g/ha): 2 | Sugarbeets plant response rating (sugar beet; [6]): 6 | Plant response rating, Sugarbeets (sugar beet; [7]): 0 | Corn plant response rating (corn; [1]): 0 | Corn plant response rating (corn; [2]): 0 | Plant response rating, Corn (corn; [3]): 0 | Corn plant response rating (corn; [4]): 0 | Corn plant response rating (corn; [5]): 0 | Corn plant response rating (0 to 10 scale) (corn; Preemergence, Rate 250 g/ha): 0 | Corn plant response rating (corn; [6]): 0 | Plant response rating, Corn (corn; [7]): 0 | Blackgrass plant response rating (blackgrass; [1]): 0 | Blackgrass plant response rating (blackgrass; [2]): 0 | Plant response rating, Blackgrass (blackgrass; [3]): 0 | Blackgrass plant response rating (blackgrass; [4]): 0 | Blackgrass plant response rating (blackgrass; [5]): 0 | Blackgrass plant response rating (0 to 10 scale) (blackgrass; Preemergence, Rate 250 g/ha): 2 | Blackgrass plant response rating (blackgrass; [6]): 9 | Plant response rating, Blackgrass (blackgrass; [7]): 0 | Morningglory plant response rating (morningglory; [1]): 4 | Morningglory plant response rating (morningglory; [2]): 4 | Morningglory plant response rating (morningglory; [4]): 0 | Morningglory plant response rating (morningglory; [5]): 0 | Morningglory plant response rating (0 to 10 scale) (morningglory; Preemergence, Rate 250 g/ha): 0 | Morningglory plant response rating (morningglory; [6]): 8 | Plant response rating, Morningglory (morningglory; [7]): 10 | Wheat plant response rating (wheat; [1]): 0 | Wheat plant response rating (wheat; [2]): 0 | Plant response rating, Wheat (wheat; [3]): 0 | Wheat plant response rating (wheat; [4]): 0 | Wheat plant response rating (wheat; [5]): 0 | Wheat plant response rating (0 to 10 scale) (wheat; Preemergence, Rate 250 g/ha): 0 | Wheat plant response rating (wheat; [6]): 2 | Plant response rating, Wheat (wheat; [7]): 0 | Bedstraw plant response rating (bedstraw; [1]): 0 | Bedstraw plant response rating (bedstraw; [2]): 0 | Plant response rating, Bedstraw (bedstraw; [3]): 7 | Bedstraw plant response rating (bedstraw; [4]): 0 | Bedstraw plant response rating (bedstraw; [5]): 0 | Bedstraw plant response rating (0 to 10 scale) (bedstraw; Preemergence, Rate 250 g/ha): 0 | Bedstraw plant response rating (bedstraw; [6]): 10 | Plant response rating, Bedstraw (bedstraw; [7]): 2 | Soybean plant response rating (soybean; [1]): 1 | Soybean plant response rating (soybean; [2]): 1 | Plant response rating, Soybean (soybean; [3]): 2 | Soybean plant response rating (soybean; [4]): 0 | Soybean plant response rating (soybean; [5]): 0 | Soybean plant response rating (0 to 10 scale) (soybean; Preemergence, Rate 250 g/ha): 0 | Soybean plant response rating (soybean; [6]): 0 | Plant response rating, Soybean (soybean; [7]): 2 | Crabgrass plant response rating (crabgrass; [1]): 0 | Crabgrass plant response rating (crabgrass; [2]): 2 | Plant response rating, Crabgrass (crabgrass; [3]): 9 | Crabgrass plant response rating (crabgrass; [4]): 8 | Crabgrass plant response rating (crabgrass; [5]): 10 | Crabgrass plant response rating (0 to 10 scale) (crabgrass; Preemergence, Rate 250 g/ha): 10 | Crabgrass plant response rating (crabgrass; [6]): 10 | Plant response rating, Crabgrass (crabgrass; [7]): 3 | Nutsedge plant response rating (purple nutsedge; [1]): 0 | Nutsedge plant response rating (purple nutsedge; [4]): 0 | Nutsedge plant response rating (purple nutsedge; [5]): 0 | Nutsedge plant response rating (0 to 10 scale) (purple nutsedge; Preemergence, Rate 250 g/ha): 0 | Nutsedge plant response rating (purple nutsedge; [6]): 0 | Giant foxtail plant response rating (giant foxtail; [1]): 0 | Giant foxtail plant response rating (giant foxtail; [2]): 0 | Plant response rating, Giant foxtail (giant foxtail; [3]): 5 | Giant foxtail plant response rating (giant foxtail; [4]): 10 | Giant foxtail plant response rating (giant foxtail; [5]): 10 | Giant foxtail plant response rating (0 to 10 scale) (giant foxtail; Preemergence, Rate 250 g/ha): 10 | Giant foxtail plant response rating (giant foxtail; [6]): 10 | Plant response rating, Giant foxtail (giant foxtail; [7]): 3 | Cocklebur plant response rating (cocklebur; [1]): 0 | Cocklebur plant response rating (cocklebur; [2]): 3 | Cocklebur plant response rating (cocklebur; [4]): 0 | Cocklebur plant response rating (cocklebur; [5]): 0 | Cocklebur plant response rating (0 to 10 scale) (cocklebur; Preemergence, Rate 250 g/ha): 0 | Cocklebur plant response rating (cocklebur; [6]): 0 | Plant response rating, Cocklebur (cocklebur; [7]): 8 | Rape plant response rating (rape; [1]): 0 | Rape plant response rating (rape; [2]): 0 | Plant response rating, Rape (rape; [3]): 3 | Rape plant response rating (rape; [4]): 0 | Rape plant response rating (rape; [5]): 0 | Rape plant response rating (0 to 10 scale) (rape; Preemergence, Rate 250 g/ha): 0 | Rape plant response rating (rape; [6]): 2 | Plant response rating, Rape (rape; [7]): 0 | Wild oats plant response rating (wild oat; [1]): 0 | Wild oats plant response rating (wild oat; [2]): 0 | Plant response rating, Wild oats (wild oat; [3]): 0 | Wild oats plant response rating (wild oat; [4]): 0 | Wild oats plant response rating (wild oat; [5]): 0 | Wild oats plant response rating (0 to 10 scale) (wild oat; Preemergence, Rate 250 g/ha): 2 | Wild oats plant response rating (wild oat; [6]): 6 | Plant response rating, Wild oats (wild oat; [7]): 0 | Velvetleaf plant response rating (velvetleaf; [1]): 0 | Velvetleaf plant response rating (velvetleaf; [2]): 3 | Velvetleaf plant response rating (velvetleaf; [4]): 0 | Velvetleaf plant response rating (velvetleaf; [5]): 0 | Velvetleaf plant response rating (0 to 10 scale) (velvetleaf; Preemergence, Rate 250 g/ha): 0 | Velvetleaf plant response rating (velvetleaf; [6]): 0 | Plant response rating, Velvetleaf (velvetleaf; [7]): 6 | Redroot pigweed plant response rating (pigweed; [1]): 0 | Redroot pigweed plant response rating (pigweed; [2]): 0 | Plant response rating, Redroot pigweed (pigweed; [3]): 0 | Redroot pigweed plant response rating (pigweed; [4]): 3 | Redroot pigweed plant response rating (pigweed; [5]): 8 | Redroot pigweed plant response rating (0 to 10 scale) (pigweed; Preemergence, Rate 250 g/ha): 9 | Redroot pigweed plant response rating (pigweed; [6]): 10 | Plant response rating, Redroot pigweed (pigweed; [7]): 0 | B. signalgrass plant response rating (surinam grass; [1]): 0 | B. signalgrass plant response rating (surinam grass; [2]): 0 | Plant response rating, B. signalgrass (surinam grass; [3]): 2 | B. signalgrass plant response rating (surinam grass; [4]): 0 | B. signalgrass plant response rating (surinam grass; [5]): 0 | B. signalgrass plant response rating (0 to 10 scale, 0 is no effect, 10 is complete control) (surinam grass; Preemergence, Rate 250 g/ha): 0 | B. signalgrass plant response rating (surinam grass; [6]): 5 | Plant response rating, B. signalgrass (surinam grass; [7]): 2
